Measured values reported in ChEMBL document CHEMBL1131057, “Peptidomimetic growth hormone secretagogues. Design considerations and therapeutic potential” (J Med Chem, 1998).
Blank lines part the entries; values can stand above or below the molecule they belong to. Where a SMILES comes first, the peptide text is derived from it. [ ]: non-standard residue; d: D form. dTrp(2-Me) = Cc1[nH]c2ccccc2c1C[C@@H](N)C(=O)O

Experiments:
Rattus norvegicus [1] = experiment: Compound was tested for effective dose rquired for GH release following iv administration to 4-week old anesthetized Sprague-Dawley rats; assay type: functional
Rattus norvegicus [2] = organism: Rattus norvegicus; experiment: compound was evaluated for GH release in the rat pituitary cell culture assay; assay type: functional; conditions: Pituitary gland cell
Rattus norvegicus [3] = organism: Rattus norvegicus; experiment: compound was evaluated for GH release in rat; assay type: functional
Rattus norvegicus [4] = experiment: Potency measured in an anesthetized rat model; assay type: functional, organism-based
[5] = target: T1, Growth hormone secretagogue receptor type 1 (Homo sapiens, UniProt Q92847); experiment: Inhibitory concentration (biotinylated probe) is evaluated for [35S]- MK-0677 binding
Rattus norvegicus [6] = organism: Rattus norvegicus; experiment: Compound measured for stimulated GH release; assay type: functional, organism-based
Rattus norvegicus [7] = organism: Rattus norvegicus; experiment: In vitro efficacy was evaluated for growth hormone release
Oxytocin receptor = target: T2, Oxytocin receptor (Homo sapiens, UniProt P30559); experiment: Antagonistic activity against Oxytocin receptor; assay type: functional
T2 sequence (P30559 whole entry): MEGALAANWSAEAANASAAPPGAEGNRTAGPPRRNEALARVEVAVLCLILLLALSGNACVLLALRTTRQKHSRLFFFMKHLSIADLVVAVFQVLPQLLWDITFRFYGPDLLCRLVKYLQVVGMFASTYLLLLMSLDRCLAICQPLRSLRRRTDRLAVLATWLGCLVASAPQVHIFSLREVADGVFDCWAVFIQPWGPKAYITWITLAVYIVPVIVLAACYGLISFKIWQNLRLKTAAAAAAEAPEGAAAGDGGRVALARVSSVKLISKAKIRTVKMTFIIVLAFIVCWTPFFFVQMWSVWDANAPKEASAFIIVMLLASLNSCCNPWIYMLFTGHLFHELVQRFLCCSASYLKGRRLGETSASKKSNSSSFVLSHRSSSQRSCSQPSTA

[8] = Compound was evaluated for percentage of Oral bioavailability in rats; assay type: ADME, organism-based; conditions: rat, in vivo, read-out: Bioavailabiility
[9] = target: T1, Growth hormone secretagogue receptor type 1; experiment: Compound was evaluated for GH release for effect on human GH secretagogue receptor; assay type: functional
Rattus norvegicus [10] = organism: Rattus norvegicus; experiment: Compound was tested for GH releasing from cultured rat pituitary cells (maximal increase in 15 min); assay type: functional, Pituitary gland cell
[11] = In vitro efficacy was evaluated for growth hormone release
[12] = Compound was evaluated percentage of Oral bioavailability in dogs; assay type: ADME, organism-based, Canis lupus familiaris; conditions: dog, in vivo
Rattus norvegicus [13] = organism: Rattus norvegicus; experiment: compound was evaluated for GH release in the rat; 10-30 ng/mL; assay type: functional, organism-based
Rattus norvegicus [14] = organism: Rattus norvegicus; experiment: compound was evaluated for GH release in the rat; assay type: functional, organism-based
Homo sapiens = organism: Homo sapiens; experiment: compound was evaluated for GH release; assay type: functional, organism-based

T1 sequence (Q92847 whole entry): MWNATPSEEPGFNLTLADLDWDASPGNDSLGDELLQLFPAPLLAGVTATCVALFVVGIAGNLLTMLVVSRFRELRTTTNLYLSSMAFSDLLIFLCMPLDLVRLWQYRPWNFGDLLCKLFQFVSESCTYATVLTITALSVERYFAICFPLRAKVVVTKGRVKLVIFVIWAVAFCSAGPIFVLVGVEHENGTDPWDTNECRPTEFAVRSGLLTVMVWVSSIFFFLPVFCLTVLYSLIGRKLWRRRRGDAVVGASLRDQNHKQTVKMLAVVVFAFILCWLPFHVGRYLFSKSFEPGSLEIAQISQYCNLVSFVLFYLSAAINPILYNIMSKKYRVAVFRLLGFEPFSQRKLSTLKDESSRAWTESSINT

SMILES: Cc1[nH]c2ccccc2c1C[C@@H](NC(=O)[C@@H](N)Cc1c[nH]cn1)C(=O)N[C@@H](C)C(=O)N[C@@H](Cc1c[nH]c2ccccc12)C(=O)N[C@H](Cc1ccccc1)C(=O)N[C@@H](CCCCN)C(N)=O [EXAMORELIN] (H-H[dTrp(2-Me)]AW[dF]K-NH2)
Activity (Rattus norvegicus [3]): 104 ng/mL

SMILES: CC(C)(N)C(=O)N[C@H](Cc1c[nH]c2ccccc12)C(=O)N1CCc2ccc(S(N)(=O)=O)cc2C1
EC50 (Rattus norvegicus [2]): 3 nM

SMILES: CNC(=O)Nc1ccccc1-c1ccc(CN2C(=O)[C@H](NC(=O)CC(C)(C)N)CCc3ccccc32)cc1
EC50 (Rattus norvegicus [2]): 50 nM

SMILES: CC1(C)C2CCC1(CS(=O)(=O)N1CCC3(CCc4ccccc43)CC1)C(NC(=O)C1CCCNC1)C2 [L-368112]
EC50 (Rattus norvegicus [7]): 300 nM
IC50 (Oxytocin receptor): 68 nM

SMILES: O=C(N[C@H](Cc1ccc2ccccc2c1)C(=O)N[C@@H](CO)Cc1c[nH]c2ccccc12)C1CCNCC1
EC50 (Rattus norvegicus [2]): 10.6 nM

SMILES: CC(C)(N)CC(=O)N[C@@H]1CCc2ccccc2N(Cc2ccc(-c3ccccc3-c3nn[nH]n3)cc2)C1=O
Max (Rattus norvegicus [10]): 300%
EC50 [11]: 60 nM
bioavailability [12]: < 5%

SMILES: C[C@H](NC(=O)[C@H](Cc1c[nH]c2ccccc12)NC(=O)[C@@H](N)Cc1ccc(O)cc1)C(=O)N[C@@H](Cc1c[nH]c2ccccc12)C(=O)N[C@H](Cc1ccccc1)C(N)=O
Concentration (Rattus norvegicus [13]): 30 ng/mL

SMILES: C[C@@H]1NC(=O)[C@H](Cc2ccc3ccccc3c2)NC(=O)[C@@H](N)CCCCNC(=O)CC[C@H](C(=O)N[C@@H](CCCCN)C(N)=O)NC(=O)[C@@H](Cc2ccccc2)NC(=O)[C@@H](Cc2c[nH]c3ccccc23)NC1=O
EC50 (Homo sapiens): 0.43 nM

SMILES: C[C@@H](O)CNC(C)(C)CC(=O)N[C@@H]1CCc2ccccc2N(Cc2ccc(-c3ccccc3-c3nn[nH]n3)cc2)C1=O [L-692585]
EC50 (Rattus norvegicus [7]): 3 nM

Second part, led by results:

EC50 (Rattus norvegicus [2]): 30 nM
SMILES: CN(C)S(=O)(=O)c1ccc2c(c1)CN(C(=O)[C@@H](Cc1c[nH]c3ccccc13)NC(=O)C(C)(C)N)CC2
ED50 (Rattus norvegicus [1]): 3 mg/kg

EC50 (Rattus norvegicus [4]): 0.5 nM
SMILES: C[C@H](NC(=O)[C@@H](Cc1c[nH]c2ccccc12)NC(=O)[C@@H](N)Cc1c[nH]cn1)C(=O)N[C@@H](Cc1c[nH]c2ccccc12)C(=O)N[C@@H](CN[C@H](CO)CCCCN)Cc1ccccc1

IC50 [5]: 0.2 nM
EC50 (Rattus norvegicus [6]): 2.5 nM
SMILES: CC(C)(N)C(=O)N[C@H](COCc1ccccc1)C(=O)N1CCC2(CC1)CN(S(=O)(=O)CC(=O)NCCCCCCNC(=O)CCCC[C@@H]1SCC3NC(=O)NC31)c1ccccc12 (stereo not given in full)

EC50 (Rattus norvegicus [2]): 100 nM
SMILES: CNC(=O)Nc1ccccc1-c1ccc2c(c1)CCN(C(=O)[C@@H](Cc1c[nH]c3ccccc13)NC(=O)C(C)(C)N)C2

IC50 (Oxytocin receptor): 130 nM
SMILES: C[C@@H](O)CN1CCC[C@@H](C(=O)NC2CC3CCC2(CS(=O)(=O)N2CCC4(CCc5ccccc54)CC2)C3(C)C)C1 (stereo not given in full)
EC50 (Rattus norvegicus [7]): 90 nM

bioavailability [8]: < 5%
SMILES: CC(C)(N)CC(=O)N[C@@H]1CCc2c(ccc3ccccc23)N(Cc2ccc(-c3ccccc3-c3nn[nH]n3)cc2)C1=O
EC50 (Rattus norvegicus [7]): 4 nM

EC50 [9]: 0.34 nM
SMILES: NC(=O)CN(CCc1ccccc1)C(=O)[C@@H](Cc1ccc2ccccc2c1)NC(=O)[C@@H](Cc1ccc2ccccc2c1)NC(=O)C1CCNCC1

EC50 (Rattus norvegicus [14]): 0.18 nM
SMILES: NCCCC[C@H](NC(=O)[C@H](Cc1ccccc1)NC(=O)[C@@H](Cc1ccc2ccccc2c1)NC(=O)[C@@H](Cc1ccc2ccccc2c1)NC(=O)C1CCNCC1)C(N)=O

EC50 (Rattus norvegicus [2]): 1.8 nM
SMILES: CC(C)(N)C(=O)N[C@H](Cc1c[nH]c2ccccc12)C(=O)N1CCC[C@]2(CC(=O)c3ccccc3O2)C1
